Assay results from ChEMBL document CHEMBL4152250, “Antibacterial and anti-TB tat-peptidomimetics with improved efficacy and half-life” (Eur J Med Chem, 2018).
≈ marks a conversion by molar mass, not a printed value. Calls of active or inactive are those of the source. The calls are words filed in the database; no cut-off is given here. Numbered stars: 1 amine (or outer) side, 2 acyl side, 3 side chain; on linkers, the order of the positions; unused ones are H or OH. Square brackets hold non-standard residues; d marks the D form. Peptide text beside a SMILES is read from it. Pro(N-(CH2)3Gua,cis-4-NH-) = N=C(N)NCCCN1C[C@@H](N[*:1])C[C@H]1C(=O)[*:2]; βAla = NCCC(=O)O

Tests used:
[1] = system: Escherichia coli; experiment: Antibacterial activity against Escherichia coli NCIM 2688 after 8 hrs by serial dilution method; type: functional, organism-based; details: NCIM 2688, 8 h
[2] = system: Pseudomonas aeruginosa; experiment: Antibacterial activity against Pseudomonas aeruginosa NCIM 2036 after 8 hrs by serial dilution method; type: functional, organism-based; details: NCIM 2036, 8 h
[3] = system: Enterobacter sp.; experiment: Antibacterial activity against Enterobacter sp. NCIM 5392 after 8 hrs by serial dilution method; type: functional, organism-based; details: NCIM 5392, 8 h
[4] = system: Bacillus subtilis; experiment: Antibacterial activity against Bacillus subtilis NCIM 2079 after 12 hrs by serial dilution method; type: functional, organism-based; details: NCIM 2079, 12 h
[5] = system: Staphylococcus aureus; experiment: Antibacterial activity against Staphylococcus aureus NCIM 2010 after 12 hrs by serial dilution method; type: functional, organism-based; details: NCIM 2010, 12 h
[6] = system: Staphylococcus epidermidis; experiment: Antibacterial activity against Staphylococcus epidermidis NCIM 5270 after 12 hrs by serial dilution method; type: functional, organism-based; details: NCIM 5270, 12 h
[7] = system: Mycobacterium tuberculosis; experiment: Antitubercular activity against dormant stage of Mycobacterium tuberculosis H37Ra ATCC 25177 after 12 days by XRMA; type: functional, organism-based; details: H37Ra ATCC 25177, 288 h
[8] = system: Mycobacterium tuberculosis; experiment: Antitubercular activity against active stage of Mycobacterium tuberculosis H37Ra ATCC 25177 after 8 days by XRMA; type: functional, organism-based; details: H37Ra ATCC 25177, 192 h
[9] = Cytotoxicity against human HeLa cells assessed as cell viability at 1 to 10 uM after 24 hrs by MTT assay relative to control; type: cell-based; details: read-out: Activity
[10] = Drug degradation assessed as bovine pancreas chymotrypsin-mediated compound hydrolysis by measuring remaining compound levels at 10 mM measured at 0.5 hrs by RP-HPLC method; type: ADME, Bos taurus; details: cattle, read-out: Stability
[11] = Drug degradation assessed as bovine pancreas chymotrypsin-mediated compound hydrolysis by measuring remaining compound levels at 10 mM measured at 1 hr by RP-HPLC method; type: ADME, Bos taurus; details: cattle, read-out: Stability
[12] = Drug degradation assessed as bovine pancreas chymotrypsin-mediated compound hydrolysis by measuring remaining compound levels at 10 mM measured at 2 hrs by RP-HPLC method; type: ADME, Bos taurus; details: cattle, read-out: Stability
[13] = Drug degradation assessed as bovine pancreas chymotrypsin-mediated compound hydrolysis by measuring remaining compound levels at 10 mM measured at 4 hrs by RP-HPLC method; type: ADME, Bos taurus; details: cattle, read-out: Stability
[14] = Drug degradation assessed as bovine pancreas chymotrypsin-mediated compound hydrolysis by measuring remaining compound levels at 10 mM measured at 8 hrs by RP-HPLC method; type: ADME, Bos taurus; details: cattle, read-out: Stability
[15] = Drug degradation assessed as bovine pancreas chymotrypsin-mediated compound hydrolysis by measuring remaining compound levels at 10 mM measured at 12 hrs by RP-HPLC method; type: ADME, Bos taurus; details: cattle, read-out: Stability
[16] = Drug degradation assessed as bovine pancreas chymotrypsin-mediated compound hydrolysis by measuring remaining compound levels at 10 mM measured at 18 hrs by RP-HPLC method; type: ADME, Bos taurus; details: cattle, read-out: Stability
[17] = Drug degradation assessed as bovine pancreas chymotrypsin-mediated compound hydrolysis by measuring remaining compound levels at 10 mM measured at 24 hrs by RP-HPLC method; type: ADME, Bos taurus; details: cattle, read-out: Stability
[18] = Drug degradation assessed as bovine pancreas chymotrypsin-mediated compound hydrolysis by measuring compound half life at 10 mM by RP-HPLC method; type: ADME, Bos taurus; details: cattle
[19] = Drug degradation assessed as pepsin (unknown origin)-mediated compound hydrolysis by measuring remaining compound levels at 0.5 hrs by RP-HPLC method; type: ADME; details: human, read-out: Stability
[20] = Drug degradation assessed as pepsin (unknown origin)-mediated compound hydrolysis by measuring remaining compound levels at 1 hr by RP-HPLC method; type: ADME; details: human, read-out: Stability
[21] = Drug degradation assessed as pepsin (unknown origin)-mediated compound hydrolysis by measuring remaining compound levels at 2 hrs by RP-HPLC method; type: ADME; details: human, read-out: Stability
[22] = Drug degradation assessed as pepsin (unknown origin)-mediated compound hydrolysis by measuring remaining compound levels at 4 hrs by RP-HPLC method; type: ADME; details: human, read-out: Stability
[23] = Drug degradation assessed as pepsin (unknown origin)-mediated compound hydrolysis by measuring remaining compound levels at 8 hrs by RP-HPLC method; type: ADME; details: human, read-out: Stability
[24] = Drug degradation assessed as pepsin (unknown origin)-mediated compound hydrolysis by measuring remaining compound levels at 12 hrs by RP-HPLC method; type: ADME; details: human, read-out: Stability
[25] = Drug degradation assessed as pepsin (unknown origin)-mediated compound hydrolysis by measuring remaining compound levels at 18 hrs by RP-HPLC method; type: ADME; details: human, read-out: Stability
[26] = Drug degradation assessed as pepsin (unknown origin)-mediated compound hydrolysis by measuring remaining compound levels at 24 hrs by RP-HPLC method; type: ADME; details: human, read-out: Stability
[27] = system: Staphylococcus aureus; experiment: Disruption of cell wall in Staphylococcus aureus NCIM 2010 at MIC after 60 mins by transmission electron microscopic method; type: functional, organism-based
[28] = system: Escherichia coli; experiment: Disruption of cell wall in Escherichia coli NCIM 2688 at MIC after 60 mins by transmission electron microscopic method; type: functional, organism-based

Work on CC(=O)N[C@@H](Cc1ccccc1)C(=O)NCC(=O)N[C@@H](CCCNC(=N)N)C(=O)N[C@@H](CCCCN)C(=O)N[C@@H](CCCCN)C(=O)N[C@@H](CCCNC(=N)N)C(=O)N[C@@H](CCCNC(=N)N)C(=O)N[C@@H](CCC(N)=O)C(=O)N[C@@H](CCCNC(=N)N)C(=O)N[C@@H](CCCNC(=N)N)C(=O)N[C@@H](CCCNC(=N)N)C(N)=O yielded an IC50 [1] of 10.1 nM, an MIC [1] of 6.27 µM (≈ 9.94 µg/mL) and an IC50 [2] of 26.5 nM. For the same molecule, the MIC [2] was 7.46 µM (≈ 11.8 µg/mL), the IC50 [3] was 24 nM and the MIC [3] was 21.6 µM (≈ 34.2 µg/mL). It also gave an IC50 [4] of 12 nM, an MIC [4] of 3.34 µM (≈ 5.29 µg/mL) and an IC50 [5] of 11.3 nM. The MIC [5] was 9.91 µM (≈ 15.7 µg/mL), the IC50 [6] was 6.9 nM and the MIC [6] was 5.78 µM (≈ 9.16 µg/mL). It also gave an IC50 [7] of 40000 nM, an IC50 [8] of over 60000 nM and a viability at 24 h, up to 10 µM [9] of at least 80%. The remaining at 0.5 h, 10000 µM [10] was 86.7%, the remaining at 1 h, 10000 µM [11] was 86% and the remaining at 2 h, 10000 µM [12] was 84.6%. The remaining at 4 h, 10000 µM [13] was 82.6%, the remaining at 8 h, 10000 µM [14] was 79.6% and the remaining at 12 h, 10000 µM [15] was 78.2%. The remaining at 18 h, 10000 µM [16] was 75.1%, the remaining at 24 h, 10000 µM [17] was 15.9% and the half-life at 10000 µM [18] was 4 h. For the same molecule, the remaining at 0.5 h [19] was 94.6%, the remaining at 1 h [20] was 94.2% and the remaining at 2 h [21] was 93.1%. It also gave a remaining at 4 h [22] of 93%, a remaining at 8 h [23] of 90.6% and a remaining at 12 h [24] of 89%. The remaining at 18 h [25] was 82.1% and the remaining at 24 h [26] was 80.6%.

In the case of CC(=O)N[C@@H](Cc1ccccc1)C(=O)NCC(=O)N[C@@H](CCCNC(=N)N)C(=O)N[C@@H](CCCCN)C(=O)N[C@@H](CCCCN)C(=O)N[C@@H](CCCNC(=N)N)C(=O)N[C@@H](CCCNC(=N)N)C(=O)N[C@@H](CCC(N)=O)C(=O)N[C@@H](CCCNC(=N)N)C(=O)N[C@@H](CCCNC(=N)N)C(=O)N[C@H]1C[C@@H](C(=O)NCCC(N)=O)N(CCCNC(=N)N)C1 (Ac-FGRKKRRQRR[Pro(N-(CH2)3Gua,cis-4-NH-)][βAla]-NH2), the IC50 [1] is reported as 8 nM, the MIC [1] is reported as 5.71 µM (≈ 9.77 µg/mL) and the IC50 [2] is reported as 9.3 nM. It also gave an MIC [2] of 3.35 µM (≈ 5.73 µg/mL), an IC50 [3] of 13 nM and an MIC [3] of 18.9 µM (≈ 32.3 µg/mL). The IC50 [4] was 9.3 nM, the MIC [4] was 3.56 µM (≈ 6.09 µg/mL) and the IC50 [5] was 7 nM. It also gave an MIC [5] of 8.47 µM (≈ 14.5 µg/mL), an IC50 [6] of 10 nM and an MIC [6] of 4.92 µM (≈ 8.42 µg/mL). The IC50 [7] was 1970 nM, the MIC [7] was 18.4 µM (≈ 31.5 µg/mL) and the IC50 [8] was 2420 nM. The MIC [8] was 27.6 µM (≈ 47.2 µg/mL), the Activity [27] was “Active” and the Activity [28] was “Active”. For the same molecule, the viability at 24 h, up to 10 µM [9] was at least 80%.
